Measured values reported in US20240199635A1, “TETRAHYDROTHIENO PYRIDINE DERIVATIVES AS DDRS INHIBITORS” (CHIESI FARMACEUTICI S.P.A., priority 2021, published 2024).

Columns and labels:
DDR2 = DDR2 (Homo sapiens (Human), UniProt Q16832); assay: DDR2 binding assay (LanthaScreen Europium Kinase Binding assay); conditions: potency class, read-out: Ki DDR2
Protocol: (§1) DDR1 and DDR2 binding assays were performed using Life Technologies LanthaScreen™ Europium Kinase Binding assay. The compounds were incubated with 5 nM DDR1 (Carna Biosciences) or 5 nM DDR2 (Life Technologies) for 1 hour at room temperature in white 384-well OptiPlate (PerkinElmer), containing 20 nM or 10 nM Kinase Tracer 178 respectively and 2 nM Europium labelled anti-GST antibody (Life Technologies) in assay buffer (50 mM HEPES pH 7.5, 10 mM MgCl2, 1 mM EGTA and 0.01% BRIJ35).
(§2) The ratio of fluorescence emission 665 nm/615 nm after excitation at 340 nm was obtained using the Tecan Spark 20M plate reader. IC50 values were determined in GraphPad Prism 7.0 software, using 4 parameter model: log(inhibitor) vs. response. IC50 values were converted in Ki using the Cheng-Prusoff equation (Ki=IC50/(1+[Tracer]/Kd).

DDR1 [1] = target: T1, DDR1 (Homo sapiens (Human), UniProt Q08345); assay: DDR1 cell based assay (PathHunter U2OS DDR1 assay); conditions: U2OS-DDR1 cells, Type II Collagen stimulation, potency class
T1 sequence (Q08345 19-913): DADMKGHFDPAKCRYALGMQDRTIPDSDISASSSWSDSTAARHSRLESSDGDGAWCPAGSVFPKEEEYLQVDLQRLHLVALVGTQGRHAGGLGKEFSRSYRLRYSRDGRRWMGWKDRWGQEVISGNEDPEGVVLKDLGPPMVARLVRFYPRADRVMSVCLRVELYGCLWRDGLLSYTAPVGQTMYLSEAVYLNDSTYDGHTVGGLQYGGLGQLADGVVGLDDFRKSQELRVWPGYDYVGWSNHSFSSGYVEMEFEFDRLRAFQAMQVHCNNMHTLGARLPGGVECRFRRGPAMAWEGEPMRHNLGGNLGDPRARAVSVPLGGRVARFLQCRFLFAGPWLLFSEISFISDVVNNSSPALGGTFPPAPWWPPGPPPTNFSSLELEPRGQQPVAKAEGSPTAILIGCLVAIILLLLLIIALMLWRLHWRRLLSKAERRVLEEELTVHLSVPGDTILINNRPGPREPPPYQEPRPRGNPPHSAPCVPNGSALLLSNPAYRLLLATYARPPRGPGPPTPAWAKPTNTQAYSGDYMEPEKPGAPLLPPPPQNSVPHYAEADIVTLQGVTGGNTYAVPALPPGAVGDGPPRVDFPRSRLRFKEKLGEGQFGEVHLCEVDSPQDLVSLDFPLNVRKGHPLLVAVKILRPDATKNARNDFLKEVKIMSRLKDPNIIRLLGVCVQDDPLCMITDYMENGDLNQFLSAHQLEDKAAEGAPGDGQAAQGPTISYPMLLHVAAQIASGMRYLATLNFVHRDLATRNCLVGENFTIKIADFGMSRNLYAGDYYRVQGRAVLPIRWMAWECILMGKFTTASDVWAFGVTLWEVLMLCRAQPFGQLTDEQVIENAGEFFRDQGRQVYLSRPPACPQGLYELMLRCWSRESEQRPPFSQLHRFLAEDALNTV
Protocol: The inhibition of DDR1 receptor activation by compounds was evaluated by PathHunter® U2OS DDR1 assay (Eurofins DiscoverX), according to the manufacturer's instructions. Briefly, U2OS-DDR1 cells were seeded in white 384-well plates at a density of 5000 cells/well and incubated for 2 hours at 37° C. and 5% CO2. Cells were then treated with compounds at different concentrations and incubated for 30 minutes, before stimulation with bovine Type II Collagen 20 μg/ml and incubation overnight at 37° C. and 5% CO2. PathHunter Detection Reagents were prepared according to the protocol provided by DiscoverX and 20 μl/well of this mix were added to each well. After incubating the plates for 1 hour at room temperature in the dark, luminescence signal was acquired with a plate reader. Raw data were normalized to vehicle control (0% for normalization) and positive control (100% for normalization; cells treated with 20 μg/ml collagen II) and IC50 parameters were calculated in GraphPad Prism 8.0 software, using sigmoidal dose-response curve fitting with variable slope.

DDR1 [2] = target: T1, DDR1; assay: DDR1 binding assay (LanthaScreen Europium Kinase Binding assay); conditions: potency class, read-out: Ki DDR1
Protocol: as §1, §2

DDR2, sequence (Q16832 22-855): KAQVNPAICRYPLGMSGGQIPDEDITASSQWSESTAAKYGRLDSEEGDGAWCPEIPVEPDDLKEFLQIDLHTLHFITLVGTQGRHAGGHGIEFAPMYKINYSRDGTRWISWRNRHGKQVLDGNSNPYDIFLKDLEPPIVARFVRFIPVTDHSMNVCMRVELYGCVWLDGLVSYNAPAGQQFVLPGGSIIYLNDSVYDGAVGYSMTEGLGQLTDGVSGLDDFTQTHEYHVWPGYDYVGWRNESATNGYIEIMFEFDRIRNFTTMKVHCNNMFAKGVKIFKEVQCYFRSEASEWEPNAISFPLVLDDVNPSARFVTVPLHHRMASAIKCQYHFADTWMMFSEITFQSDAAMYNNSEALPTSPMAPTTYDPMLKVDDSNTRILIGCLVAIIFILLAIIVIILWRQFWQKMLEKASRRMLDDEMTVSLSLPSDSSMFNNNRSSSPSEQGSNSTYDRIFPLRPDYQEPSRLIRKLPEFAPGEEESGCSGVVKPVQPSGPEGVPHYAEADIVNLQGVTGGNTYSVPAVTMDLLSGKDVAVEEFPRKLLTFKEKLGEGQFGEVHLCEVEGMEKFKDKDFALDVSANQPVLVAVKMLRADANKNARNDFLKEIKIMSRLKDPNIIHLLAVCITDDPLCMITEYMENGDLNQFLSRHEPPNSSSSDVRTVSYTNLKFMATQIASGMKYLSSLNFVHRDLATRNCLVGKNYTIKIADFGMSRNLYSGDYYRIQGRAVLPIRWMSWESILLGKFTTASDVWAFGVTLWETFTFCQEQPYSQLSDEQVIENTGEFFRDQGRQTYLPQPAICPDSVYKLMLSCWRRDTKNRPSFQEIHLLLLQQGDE

| Ki (DDR2) [nM] | IC50 (DDR1 [1]) [nM] | Ki (DDR1 [2]) [nM] | SMILES |
| --- | --- | --- | --- |
| < 25 | 25 to 50 | < 25 | CN(C)[C@@H]1CCN(Cc2cc(NC(=O)c3csc4c3CCN(Cc3cncnc3OC3CC3)C4)cc(C(F)(F)F)c2)C1 [Example 53, (R)-6-((4-cyclopropoxypyrimidin-5-yl)methyl)-N-(3-((3-(dimethylamino)pyrrolidin-1-yl)methyl)-5-(trifluoromethyl)phenyl)-4,5,6,7-tetrahydrothieno[2,3-c]pyridine-3-carboxamide] |
| < 25 | 25 to 50 | < 25 | N#Cc1cncc(CN2CCc3c(C(=O)Nc4cccc(C(F)(F)F)c4)csc3C2)c1 [Example 19, 6-((5-cyanopyridin-3-yl)methyl)-N-(3-(trifluoromethyl)phenyl)-4,5,6,7-tetrahydrothieno[2,3-c]pyridine-3-carboxamide] |
| < 25 | < 25 | < 25 | CNc1ccc(CN2CCc3c(C(=O)Nc4cc(F)cc(C(F)(F)F)c4)csc3C2)cn1 [Example 48, N-[3-fluoro-5-(trifluoromethyl)phenyl]-6-[[6-(methylamino)-3-pyridyl]methyl]-5,7-dihydro-4H-thieno[2,3-c]pyridine-3-carboxamide] |
| < 25 | < 25 | < 25 | Cn1cncc1C(=O)N1CCc2c(C(=O)Nc3cc(F)cc(C(F)(F)F)c3)csc2C1 [Example 49, N-(3-fluoro-5-(trifluoromethyl)phenyl)-6-(1-methyl-1H-imidazole-5-carbonyl)-4,5,6,7-tetrahydrothieno[2,3-c]pyridine-3-carboxamide] |
| 25 to 50 | 50 to 80 | < 25 | CN(C)[C@@H]1CCN(Cc2cc(NC(=O)c3csc4c3CCN(Cc3cncnc3C(C)(C)F)C4)cc(C(F)(F)F)c2)C1 [Example 51, (R)-N-(3-((3-(dimethylamino)pyrrolidin-1-yl)methyl)-5-(trifluoromethyl)phenyl)-6-((4-(2-fluoropropan-2-yl)pyrimidin-5-yl)methyl)-4,5,6,7-tetrahydrothieno[2,3-c]pyridine-3-carboxamide] |
| < 25 | 50 to 80 | < 25 | O=C(Nc1ccc(F)c(C(F)(F)F)c1)c1csc2c1CCN(Cc1cncnc1)C2 [Example 8, N-(4-fluoro-3-(trifluoromethyl)phenyl)-6-(pyrimidin-5-ylmethyl)-4,5,6,7-tetrahydrothieno[2,3-c]pyridine-3-carboxamide] |
| < 25 | < 25 | < 25 | CC(C)(c1cc(NC(=O)c2csc3c2CCN(Cc2cnc(N)nc2)C3)no1)C(F)(F)F [Example 62, 6-((2-aminopyrimidin-5-yl)methyl)-N-(5-(1,1,1-trifluoro-2-methylpropan-2-yl)isoxazol-3-yl)-4,5,6,7-tetrahydrothieno[2,3-c]pyridine-3-carboxamide] |
| < 25 | 25 to 50 | < 25 | O=C(Nc1cccc(C(F)(F)F)c1)c1csc2c1CCN(Cc1cncc(F)c1)C2 [Example 24, 6-((5-fluoropyridin-3-yl)methyl)-N-(3-(trifluoromethyl)phenyl)-4,5,6,7-tetrahydrothieno[2,3-c]pyridine-3-carboxamide] |
| < 25 | 25 to 50 | < 25 | CC(C)(c1cc(NC(=O)c2csc3c2CCN(Cc2cncnc2)C3)no1)C(F)(F)F [Example 6, 6-(pyrimidin-5-ylmethyl)-N-(5-(1,1,1-trifluoro-2-methylpropan-2-yl)isoxazol-3-yl)-4,5,6,7-tetrahydrothieno[2,3-c]pyridine-3-carboxamide] |
| < 25 | 50 to 80 | < 25 | CC(F)(F)c1cccc(NC(=O)c2csc3c2CCN(Cc2cncnc2)C3)c1 [Example 9, N-(3-(1,1-difluoroethyl)phenyl)-6-(pyrimidin-5-ylmethyl)-4,5,6,7-tetrahydrothieno[2,3-c]pyridine-3-carboxamide] |
| < 25 | 25 to 50 | < 25 | Cc1cn(-c2cc(NC(=O)c3csc4c3CCN(Cc3cncnc3)C4)cc(C(F)(F)F)c2)cn1 [Example 3, N-(3-(4-methyl-1H-imidazol-1-yl)-5-(trifluoromethyl)phenyl)-6-(pyrimidin-5-ylmethyl)-4,5,6,7-tetrahydrothieno[2,3-c]pyridine-3-carboxamide] |
| < 25 | 50 to 80 | < 25 | O=C(Nc1cc(C(F)(F)F)ccc1F)c1csc2c1CCN(Cc1cncnc1)C2 [Example 11, N-(2-fluoro-5-(trifluoromethyl)phenyl)-6-(pyrimidin-5-ylmethyl)-4,5,6,7-tetrahydrothieno[2,3-c]pyridine-3-carboxamide] |
| < 25 | 25 to 50 | < 25 | O=C(Nc1cncc(C(F)(F)F)c1)c1csc2c1CCN(Cc1cncc(F)c1)C2 [Example 33, 6-((5-fluoropyridin-3-yl)methyl)-N-(5-(trifluoromethyl)pyridin-3-yl)-4,5,6,7-tetrahydrothieno[2,3-c]pyridine-3-carboxamide] |
| < 25 | 25 to 50 | < 25 | O=C(Nc1cc(F)cc(C(F)(F)F)c1)c1csc2c1CCN(Cc1cnc(NC3COC3)nc1)C2 [Example 37, N-[3-fluoro-5-(trifluoromethyl)phenyl]-6-[[2-(oxetan-3-ylamino)pyrimidin-5-yl]methyl]-5,7-dihydro-4H-thieno[2,3-c]pyridine-3-carboxamide] |
| < 25 | 50 to 80 | < 25 | Cc1cncc(CN2CCc3c(C(=O)Nc4cccc(C(F)(F)F)c4)csc3C2)c1 [Example 22, 6-((5-methylpyridin-3-yl)methyl)-N-(3-(trifluoromethyl)phenyl)-4,5,6,7-tetrahydrothieno[2,3-c]pyridine-3-carboxamide] |
| < 25 | 25 to 50 | < 25 | CN(C)[C@@H]1CCN(Cc2cc(NC(=O)c3csc4c3CCN(Cc3cnc(N)nc3)C4)cc(C(F)(F)F)c2)C1 [Example 50, (R)-6-((2-aminopyrimidin-5-yl)methyl)-N-(3-((3-(dimethylamino)pyrrolidin-1-yl)methyl)-5-(trifluoromethyl)phenyl)-4,5,6,7-tetrahydrothieno[2,3-c]pyridine-3-carboxamide] |
| < 25 | < 25 | < 25 | CNc1ncc(CN2CCc3c(C(=O)Nc4cc(F)cc(C(F)(F)F)c4)csc3C2)cn1 [Example 40, N-(3-fluoro-5-(trifluoromethyl)phenyl)-6-((2-(methylamino)pyrimidin-5-yl)methyl)-4,5,6,7-tetrahydrothieno[2,3-c]pyridine-3-carboxamide] |
| < 25 | < 25 | < 25 | N#Cc1cc(NC(=O)c2csc3c2CCN(Cc2cnc(N)nc2)C3)cc(C(F)(F)F)c1 [Example 59, 6-((2-aminopyrimidin-5-yl)methyl)-N-(3-cyano-5-(trifluoromethyl)phenyl)-4,5,6,7-tetrahydrothieno[2,3-c]pyridine-3-carboxamide] |
| < 25 | < 25 | < 25 | Nc1ncc(CN2CCc3c(C(=O)Nc4cncc(OC(F)(F)F)c4)csc3C2)cn1 [Example 60, 6-((2-aminopyrimidin-5-yl)methyl)-N-(5-(trifluoromethoxy)pyridin-3-yl)-4,5,6,7-tetrahydrothieno[2,3-c]pyridine-3-carboxamide] |
| 25 to 50 | 50 to 80 | < 25 | Nc1ncc(CN2CCc3c(C(=O)Nc4cncc(C(F)(F)F)c4)csc3C2)cn1 [Example 35, 6-((2-aminopyrimidin-5-yl)methyl)-N-(5-(trifluoromethyl)pyridin-3-yl)-4,5,6,7-tetrahydrothieno[2,3-c]pyridine-3-carboxamide] |
